In patent publication US7943577B2, “Alpha-fetoprotein peptides and uses thereof” (Albany Medical College, priority 2001, dated 2011):

Key:
[1] = tested on: MAPK activation and ER phosphorylation in T47-D human breast cancer cells; test: E2-induced MAPK activation and ER serine-118 phosphorylation in T47-D cells; type: cell-based; conditions: E2 10^−8M, 60 m
Procedure: Cells were treated with E2 for 60 m and lysed. The nuclear fraction was isolated, separated by gel electrophoresis of the nucleoproteins, and the proteins were transferred to membranes. The resolved nucleoproteins were immunoblotted with anti-phosphoMAPK (activated MAPK, pMAPK) and anti-phosphoER (pER.) The anti-pER is directed to ER's serine-118. The peptides of the invention, at, e.g., […], blocks MAPK E2 activation and E2-induced ER phosphorylation. However, there is no enhancement by E2 of either MAPK activation or ER phosphorylation when E2 is added with the peptides of the invention. It has been shown by Lobehofer et al. (Cell Growth Differ 11: 99-110 (2000)) that pharmacological inhibition of MAPK prevents E2-induced mitogenesis in human breast cancer cell line (MCF-7). Therefore, the peptides of the invention block ER phosphorylation, a step which is required for full transcriptional activity of ER, and as such, the peptides of the invention are useful anti-cancer, e.g., breast cancer, agents.
The inventors, while not wishing to be limited to a particular method or theory of how the present invention operates, have performed experiments using T-47D cells cultured with estradiol plus peptides of the invention, estradiol alone, peptide alone, or no additives (control). […] There was a corresponding reduction in the phosphorylation of serine 118 on the estrogen receptor. […]

C6 glioma cells = test: PCNA and nuclear ERα immunoblot, C6; type: cell-based, murine; design: key to Total Nuclear Estrogen Receptor / PCNA accumulation: “+” indicates increase; “−” indicates decrease; “NC” indicates no change
Procedure: (§1) Cell lines. Glioma cells: C6 cells were cultured in F-12K medium with 18% FBS. F98 cells and GL261 cells were cultured in DMEM with 10% FBS. Head and neck cancer: 22B cells were cultured in DMEM with 10% FBS. Papillary thyroid cancers: BHP2-7 cells and BHP18-21 cells were cultured in DMEM with 10% FBS. Small cell lung cancer: HTB184 cells were cultured in RPMI medium with 10% FBS. Breast cancers: MCF-7 cells were cultured in DMEM (w/o phenol red) with 5% FBS and MDA-MB cells were cultured in DMEM with 10% FBS. Colon cancer: Colo 205 cells were cultured in RPMI medium with 10% FBS. Ovarian cancer: OVCAR-3 cells were culture in RPMI medium with 20% FBS supplemented with insulin. Prostate cancers: LNCaP cells were cultured in RPMI medium with 10% FBS. DU145 cells were cultured in MEM with 10% FBS and PC3 cells were cultured in F-12 medium with 10% FBS. Cervical cancer: HeLa cells were cultured in MEM with 10% FBS. Melanoma cells were cultured in DMEM with 10% FBS. These conditions were determined to maintain cellular production of proliferating cell nuclear antigen (PCNA) at high levels immediately prior to study of AFP-related peptide. All cell cultures were maintained in a 5% CO2/95% O2 incubator at 37 C. Cell fractionation. Fractionation in a microfuge and preparation of nucleoproteins was by our previously reported methods (1-3). Nuclear extracts were prepared by resuspension of the crude nuclei in high salt buffer (hypotonic buffer with 420 mM NaCl and 20% glycerol) at 4° C. with rocking for 1 hr. The supernatants were collected after subsequent centrifugation at 4° C. and 13,000 rpm for 10 min. Immunoblotting. The techniques are standard and have been described in a number of our publications (1-3). In brief, nucleoproteins were separated on discontinuous SDS-PAGE and then transferred by electroblotting to nitocellulose membranes (Millipore, Bedford, Mass.). […] Immunoreactive proteins are detected by chemiluminescence.

F98 glioma cells = test: PCNA and nuclear ERα immunoblot, F98; type: cell-based, murine; design: key to Total Nuclear Estrogen Receptor / PCNA accumulation: “+” indicates increase; “−” indicates decrease; “NC” indicates no change
Procedure: as §1

GL261 glioma cells = test: PCNA and nuclear ERα immunoblot, GL261; type: cell-based, murine; design: key to Total Nuclear Estrogen Receptor / PCNA accumulation: “+” indicates increase; “−” indicates decrease; “NC” indicates no change
Procedure: as §1

[2] = tested on: head and neck 22B cancer cells; test: PCNA and nuclear ERα immunoblot, 22B; type: cell-based, human; design: key to Total Nuclear Estrogen Receptor / PCNA accumulation: “+” indicates increase; “−” indicates decrease; “NC” indicates no change
Procedure: as §1

[3] = tested on: BHP 2-7 papillary thyroid cancer cells; test: PCNA and nuclear ERα immunoblot, BHP 2-7; type: cell-based; design: key to Total Nuclear Estrogen Receptor / PCNA accumulation: “+” indicates increase; “−” indicates decrease; “NC” indicates no change
Procedure: as §1

[4] = tested on: MCF-7 breast cancer cells; test: PCNA and nuclear ERα immunoblot, MCF-7; type: cell-based, human; design: key to Total Nuclear Estrogen Receptor / PCNA accumulation: “+” indicates increase; “−” indicates decrease; “NC” indicates no change
Procedure: as §1

[5] = tested on: ovarian cancer OVCAR-3 cells; test: PCNA and nuclear ERα immunoblot, OVCAR-3; type: cell-based; design: key to Total Nuclear Estrogen Receptor / PCNA accumulation: “+” indicates increase; “−” indicates decrease; “NC” indicates no change
Procedure: as §1

[6] = tested on: LNCaP prostate carcinoma cells; test: PCNA and nuclear ERα immunoblot, LNCaP; type: cell-based, human; design: key to Total Nuclear Estrogen Receptor / PCNA accumulation: “+” indicates increase; “−” indicates decrease; “NC” indicates no change
Procedure: as §1

cancer cell lines = test: PCNA and nuclear ERα immunoblot, summary over cancer cell lines; type: cell-based; conditions: E2 1×10^−9 M
Procedure: as §1

[7] = BHP 2-7 (Papillary Thyroid Cancer)

**Q.** How did the “MAPK activation (pMAPK) and ER serine phosphorylation (pER), nuclear fraction immunoblot” value [1] turn out when `C[C@]12CC[C@@H]3c4ccc(O)cc4CC[C@H]3[C@@H]1CC[C@@H]2O` [E2, 17β-estradiol] was run?
**A.** Its value is “activates MAPK, e.g., in T47-D human breast cancer cells and serine-phosphorylates ER”.

**Q.** What about the PCNA accumulation (C6 glioma cells; C6 (Glioma)) of the same molecule?
**A.** Its PCNA accumulation is “+”.

**Q.** What about the “Total Nuclear Estrogen Receptor” value (C6 glioma cells; C6 (Glioma)) of the same molecule?
**A.** The value was “+”.

**Q.** What about the “nuclear ERα” value (C6 glioma cells; C6, 10^−9 M E2 or 10^−6 M AFP-peptide, 24 h) of the same molecule?
**A.** Its value is “increased nuclear accumulation of ERα”.

**Q.** What about the PCNA accumulation (F98 glioma cells; F98 (Glioma)) of the same molecule?
**A.** Its PCNA accumulation is “+”.

**Q.** And the “Total Nuclear Estrogen Receptor” value (F98 glioma cells; F98 (Glioma))?
**A.** Its value is “+”.

**Q.** And the “nuclear ERα” value (F98 glioma cells; F98, 10^−9 M E2 or 10^−6 M AFP-peptide, 24 h)?
**A.** The value was “increased nuclear accumulation of ERα”.

**Q.** And the PCNA accumulation (GL261 glioma cells; GL261 (Glioma))?
**A.** Its PCNA accumulation is “−”.

**Q.** What about the “Total Nuclear Estrogen Receptor” value (GL261 glioma cells; GL261 (Glioma)) of the same molecule?
**A.** The value was “+”.

**Q.** And the “nuclear ERα” value (GL261 glioma cells; GL261, 10^−9 M E2 or 10^−6 M AFP-peptide, 24 h)?
**A.** The value was “increased nuclear accumulation of ERα”.

**Q.** And the PCNA accumulation ([2]; 22B (Head Neck Cancer))?
**A.** The PCNA accumulation was “+”.

**Q.** What about the “Total Nuclear Estrogen Receptor” value ([2]; 22B (Head Neck Cancer)) of the same molecule?
**A.** The value was “+”.

**Q.** And the “nuclear ERα” value ([2]; 22B, 10^−9M E2 or 10^−7 M AFP-peptide, 24 h)?
**A.** Its value is “increased nuclear accumulation of ERα”.

**Q.** What about the PCNA accumulation [3, 7] of the same molecule?
**A.** Its PCNA accumulation is “+”.

**Q.** And the “Total Nuclear Estrogen Receptor” value [3, 7]?
**A.** Its value is “+”.

**Q.** What about the “nuclear ERα” value ([3]; BHP 2-7, 10^−9 M E2 or 10^−7 M AFP-peptide, 24 h) of the same molecule?
**A.** The value was “increased nuclear accumulation of ERα”.

**Q.** And the PCNA accumulation ([4]; MCF-7 (Breast Cancer))?
**A.** Its PCNA accumulation is “+”.

**Q.** What about the “Total Nuclear Estrogen Receptor” value ([4]; MCF-7 (Breast Cancer)) of the same molecule?
**A.** Its value is “+”.

**Q.** And the “nuclear accumulation of activated ER (phosphoERα)” value ([4]; MCF-7, 10^−9 M E2 or 10^−8 M AFP-peptide, 24 h)?
**A.** The value was “increased nuclear accumulation of activated ER (phosphoERα)”.

**Q.** What about the PCNA accumulation ([5]; OVCAR-3 (Ovarian Cancer)) of the same molecule?
**A.** Its PCNA accumulation is “+”.

**Q.** What about the “Total Nuclear Estrogen Receptor” value ([5]; OVCAR-3 (Ovarian Cancer)) of the same molecule?
**A.** Its value is “NC”.

**Q.** And the “nuclear ERα” value ([5]; OVCAR-3, 10^−9 M E2 or 10^−7M AFP-peptide, 24 h)?
**A.** Its value is “did not increase nuclear accumulation of ERα”.

**Q.** And the PCNA accumulation ([6]; LNCaP (Prostate Cancer))?
**A.** Its PCNA accumulation is “+”.

**Q.** What about the “Total Nuclear Estrogen Receptor” value ([6]; LNCaP (Prostate Cancer)) of the same molecule?
**A.** The value was “NC”.

**Q.** And the “nuclear ERα” value ([6]; LNCaP, 10^−9 M E2 or 10^−6 M AFP-peptide, 24 h)?
**A.** The value was “did not increase nuclear accumulation of ERα”.

**Q.** And the “total nuclear accumulation of ERα” value (cancer cell lines; 24 hr, C6, F98, GL261, 22B, BHP 2-7, BHP 18-21, HTB 184, MCF-7 and HeLa cells)?
**A.** The value was “increased total nuclear accumulation of estrogen receptor-α (ERα)”.

**Q.** What about the “total nuclear ERα” value (cancer cell lines; MDA-MB, Colo205, OVCAR-3, LNCaP, and PC3 cells) of the same molecule?
**A.** The value was “no significant change in total nuclear ERα”.

**Q.** What about the “total nuclear ERα” value (cancer cell lines; melanoma cells) of the same molecule?
**A.** Its value is “decreased the total nuclear ERα”.
